Where “and” joins values, the source holds several entries; their conditions need not be identical. Equal entries are not always repeated.
Tests used:
[1] = Tissue level of theophylline in larvae after feeding on sprayed leaves (immunoenzymatic assay); type: in vivo, Manduca sexta; settings: 1% spray, three days of feeding; mean ± deviation, two groups of six pooled animals; 4320 min; read-out: internal theophylline concentration of larvae
Experimental: To determine if the dosage of xanthine derivatives described in experiments 4, 7 and 8-11 and ingested by the larvae (causing pestistatic and pesticidal activity in vivo) were actually absorbed by the animals and were sufficient to inhibit PDE in vitro, additional experiments were carried out in order to estimate tissue levels of xanthine derivative following three days of feeding on various doses of the derivative. Groups of six larvae were placed on leaves treated with vehicle or theophylline spray. After three days, leaf area was recorded and larvae (alive or dead) were rinsed to remove any compound adhering to their cuticle, homogenized whole, centrifuged, and the cell-free supernatant assayed for theophylline content by immunoenzymatic assay (Emit-AAD theophylline assay (Syva Company, Palo Alto, CA.)). […] From mammalian studies, it is known that theophylline penetrates freely into all body compartments (Rall, T. W., supra.). […] This observation tends to rule out the hypothesis wherein adenosine receptors are involved as a mechanism for the antifeeding effects of the xanthine derivatives, since, in vertebrates, xanthine derivatives such as theophylline are competitive adenosine receptor antagonists, but exert such antagonism at much lower concentrations, typically 1-25 micromoles. […]

[2] = system: Manduca sexta (tobacco hornworm) larvae; experiment: Antifeeding test: tomato leaves sprayed with compound, tobacco hornworm larvae; type: in vivo
[3] = system: hornworm nerve cord PDE (cyclic AMP phosphodiesterase); experiment: Inhibition of cyclic AMP phosphodiesterase activity in homogenates of tobacco hornworm nerve cord; type: biochemical, Manduca sexta; settings: for activity of structurally similar compounds tested as described in Example 46: Example 47
Experimental: Nerve cord was dissected from 40-60 mm long M. sexta larvae, cleaned, and homogenized (2 mg/ml) in 6 Mm Tris-maleate, pH 7.4. PDE activity was measured (4 min. incubation at 30° C.) in an assay system (0.1 ml) containing 80 mM Tris-maleate, pH 7.4; 6 mM Mg--SO4; 10^-7 M^3 H-cyclic AMP; and tissue homogenate (0.02 ml). Nerve cord was evaluated in the presence and the absence of the xanthine derivative. For purposes of the evaluation, the rate of formation of ^3 H-5' AMP was measured using the technique described in Filburn, C. […] The values shown in FIG. 1D are the mean (±SEM) of three separate experiments.

[4] = system: light organ octopamine-stimulated adenylate cyclase; settings: cited from earlier work
adenosine receptor = settings: Bruns et al.; cited from earlier work
Callosobrucaus chinensis = settings: concentration of 1.5%; cited from earlier work
[5] = system: larvae of Manduca sexta (tobacco hornworm); experiment: Feeding on artificial media containing the test material; type: in vivo; settings: concentrations found naturally in undried tea leaves or coffee beans
Experimental: Various concentrations of finely powdered tea leaves or powdered coffee beans were mixed in artificial media which was then plated out in small petri dishes and allowed to harden. […] At concentrations greater than 10% (for coffee) or 3% (for tea), larvae were killed within 24 hours.
The larvae of Manduca sexta were fed on either artificial or natural food. When added to artificial media, caffeine (the major methylxanthine found in tea and coffee) exerted behavioral effects that were qualitatively similar to those of the tea and coffee described above. […] Further, the dried tea leaves, which contain 2-3 times the caffeine content of dried coffee beans, were about 2-3 times as effective as coffee beans in inhibiting weight gain. Further, the concentrations of caffeine which are found naturally in undried tea leaves (0.68-2.1%) or coffee beans (0.8-1.8%) were sufficient to kill most Manduca larvae. Thus, caffeine functions as an endogenous insecticide.

Row | Structure (SMILES) | concentration [1] [µM] | inhibition of leaf consumption ([2]; 1% spray, three days) | Vmax (percent inhibition of feeding at the highest dose used) ([2]; highest dose usually a 3% spray solution) [%] | EC50 (spray concentration required to cause 50% inhibition of feeding) ([2]; spray on tomato leaves, calculated from dose-response curves, Manduca sexta 6 per leaf) | activity of structurally similar compounds tested as described in Example 46 [3] | inhibition of hornworm nerve cord PDE activity in vitro ([3]; at the internal concentration found (4.1 mM)) [%] | potency as partial agonist relative to octopamine [4] | weaker than theophylline as an adenosine antagonist (adenosine receptor) [fold] | sterility (Callosobrucaus chinensis) [%] | concentrations sufficient to kill most Manduca larvae [5] | EC50 (spray concentration required to cause 50% inhibition of feeding) ([2]; in vivo) | Vmax (percent inhibition of feeding at the highest dose used) ([2]; in vivo) | antifeeding effect (in words) ([2]; in vivo) | PDE inhibition (in words) ([3]; FIG. 1D)
1 | Cn1c(=O)c2[nH]cnc2n(C)c1=O [Example 15, 1,3-dimethyl-xanthine (theophylline), reference compound] | 4100 ± 1100 | about 50% | 94 | 1.5 % (gm/100 ml) | active | > 80 | – | – | – | – | – | – | – | –
2 | CNC=Nc1ccc(Cl)cc1C [DCDM, N-demethylchlordimeform] | – | – | – | – | – | – | about six-fold more potent than octopamine | – | – | – | – | – | – | –
3 | Cn1c(=O)c2c(ncn2C)n(C)c1=O [Example 23, 1,3,7-trimethyl-xanthine (caffeine)] | – | – | – | – | active | – | – | 10 | ~100 | 0.68-2.1% and 0.8-1.8% | 0.3 | 98 | somewhat more potent than theophylline | about equally potent
